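The compound was tested at five concentrations on cells cultured in 96-well plates, with a 48-hour exposure period. The concentration for 50% growth inhibition is given as GI50. TGI: concentration producing complete growth inhibition.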
Tests used:
Assay in all cases: NCI tumour cell line growth inhibition, 48 h
SF-268 CNS = test system: SF-268 CNS
CAKI-1 renal = test system: CAKI-1 renal
NCI-H23 lung = test system: NCI-H23 lung
NCI/ADR-RES ovarian = test system: NCI/ADR-RES ovarian
RXF 393 renal = test system: RXF 393 renal
HCT-116 colon = test system: HCT-116 colon
ACHN renal = test system: ACHN renal
RPMI-8226 leukemia = test system: RPMI-8226 leukemia
HOP-62 NSCLC = test system: HOP-62 NSCLC
MCF7 breast = test system: MCF7 breast
KM12 colon = test system: KM12 colon
M19-MEL melanoma = test system: M19-MEL melanoma

Compound: Cc1ccc(S(=O)(=O)OCC(=O)O)cc1
- TGI (SF-268 CNS): > 100 µM
- TGI (CAKI-1 renal): > 100 µM
- TGI (NCI-H23 lung): > 100 µM
- TGI (NCI/ADR-RES ovarian): > 100 µM
- TGI (RXF 393 renal): > 100 µM
- TGI (HCT-116 colon): > 100 µM
- TGI (ACHN renal): > 100 µM
- TGI (RPMI-8226 leukemia): > 100 µM
- TGI (HOP-62 NSCLC): > 100 µM

Compound: CCCCCC(=O)NC(=S)Nc1nn[nH]n1
- TGI (SF-268 CNS): > 100 µM
- TGI (CAKI-1 renal): > 100 µM
- TGI (NCI-H23 lung): > 100 µM
- TGI (MCF7 breast): > 100 µM
- TGI (RXF 393 renal): > 100 µM
- TGI (HCT-116 colon): > 100 µM
- TGI (RPMI-8226 leukemia): > 100 µM
- TGI (KM12 colon): > 100 µM
- TGI (HOP-62 NSCLC): > 100 µM

Compound: COc1cc(Nc2c3ccccc3nc3ccccc23)ccc1NS(C)(=O)=O
- TGI (SF-268 CNS): 25.5 µM
- TGI (M19-MEL melanoma): 22.3 µM
- TGI (HCT-116 colon): > 100 µM
- TGI (ACHN renal): 14.8 µM
- TGI (RPMI-8226 leukemia): > 100 µM
- TGI (HOP-62 NSCLC): 24.3 µM

Compound: N=C(N)c1ccc(N=Nc2c(O)ccc3c2[nH]c2ccccc23)cc1
- TGI (SF-268 CNS): > 100 µM
- TGI (CAKI-1 renal): > 100 µM
- TGI (NCI-H23 lung): > 100 µM
- TGI (NCI/ADR-RES ovarian): > 100 µM
- TGI (RXF 393 renal): > 100 µM
- TGI (HCT-116 colon): 37.5 µM
- TGI (ACHN renal): 86.4 µM
- TGI (RPMI-8226 leukemia): 5.07 µM
- TGI (HOP-62 NSCLC): > 100 µM

Compound: COc1ccc(/C(Cl)=C(\C=O)c2ccc(F)cc2)cc1OC
- TGI (SF-268 CNS): 83.3 µM
- TGI (CAKI-1 renal): 63.2 µM
- TGI (NCI-H23 lung): 66.6 µM
- TGI (M19-MEL melanoma): 66.1 µM
- TGI (HCT-116 colon): 31 µM
- TGI (ACHN renal): 58.6 µM
- TGI (RPMI-8226 leukemia): 46.3 µM
- TGI (HOP-62 NSCLC): 52.6 µM

Compound: C[C@]12CCc3nc(Nc4ccccc4)sc3C1=CC[C@@H]1[C@@H]2CC[C@]2(C)/C(=N/NC(N)=S)CC[C@@H]12
- GI50 (NCI-H23 lung): 6.15 µM
- TGI (NCI-H23 lung): > 100 µM
- GI50 (NCI/ADR-RES ovarian): 4.01 µM
- TGI (NCI/ADR-RES ovarian): > 100 µM
- GI50 (MCF7 breast): 1.08 µM
- TGI (MCF7 breast): > 100 µM
- GI50 (RXF 393 renal): 2.18 µM
- TGI (RXF 393 renal): 5.09 µM
- GI50 (ACHN renal): 3.67 µM
- TGI (ACHN renal): > 100 µM
- GI50 (RPMI-8226 leukemia): 1.61 µM
- TGI (RPMI-8226 leukemia): 6.61 µM
- GI50 (KM12 colon): 6.17 µM
- TGI (KM12 colon): > 100 µM
- GI50 (HOP-62 NSCLC): 17.6 µM
- TGI (HOP-62 NSCLC): > 100 µM

Compound: O=C(NC(Cc1ccc(I)cc1)C(=O)O)c1ccc(Br)cc1 (stereo not drawn)
- TGI (SF-268 CNS): > 100 µM
- TGI (CAKI-1 renal): > 100 µM
- TGI (NCI-H23 lung): > 100 µM
- TGI (NCI/ADR-RES ovarian): > 100 µM
- TGI (MCF7 breast): > 100 µM
- TGI (RXF 393 renal): > 100 µM
- TGI (M19-MEL melanoma): > 100 µM
- TGI (HCT-116 colon): > 100 µM
- TGI (RPMI-8226 leukemia): > 100 µM
- TGI (KM12 colon): > 100 µM
- TGI (HOP-62 NSCLC): > 100 µM

Compound: Nc1ccc(N=Nc2ccccc2)cc1
- TGI (CAKI-1 renal): > 100 µM
- TGI (NCI-H23 lung): > 100 µM
- TGI (NCI/ADR-RES ovarian): > 100 µM
- TGI (MCF7 breast): > 100 µM
- TGI (RXF 393 renal): > 100 µM
- TGI (HCT-116 colon): > 100 µM
- TGI (ACHN renal): > 100 µM
- TGI (KM12 colon): > 100 µM
- TGI (HOP-62 NSCLC): > 100 µM

Compound: COc1ccc(O)cc1
- TGI (SF-268 CNS): > 100 µM
- TGI (CAKI-1 renal): > 100 µM
- TGI (NCI-H23 lung): > 100 µM
- TGI (RXF 393 renal): > 100 µM
- TGI (M19-MEL melanoma): > 100 µM
- TGI (HCT-116 colon): > 100 µM
- TGI (ACHN renal): > 100 µM
- TGI (RPMI-8226 leukemia): > 100 µM
- TGI (KM12 colon): > 100 µM
- TGI (HOP-62 NSCLC): > 100 µM

Compound: Nc1ccc2[nH]c3c(-c4ccccc4)nccc3c2c1
- TGI (SF-268 CNS): > 100 µM
- TGI (NCI-H23 lung): > 100 µM
- TGI (NCI/ADR-RES ovarian): > 100 µM
- TGI (MCF7 breast): > 100 µM
- TGI (RXF 393 renal): > 96.5 µM
- TGI (M19-MEL melanoma): > 100 µM
- TGI (HCT-116 colon): > 100 µM
- TGI (RPMI-8226 leukemia): > 100 µM
- TGI (KM12 colon): > 100 µM
- TGI (HOP-62 NSCLC): > 100 µM

Compound: Cc1[nH]c(=O)[nH]c(=O)c1/C=C/C(=O)O
- TGI (SF-268 CNS): > 1000 µM
- TGI (CAKI-1 renal): > 1000 µM
- TGI (NCI-H23 lung): > 1000 µM
- TGI (NCI/ADR-RES ovarian): > 1000 µM
- TGI (MCF7 breast): > 1000 µM
- TGI (RXF 393 renal): > 1000 µM
- TGI (M19-MEL melanoma): > 1000 µM
- TGI (HCT-116 colon): > 1000 µM
- TGI (RPMI-8226 leukemia): > 1000 µM
- TGI (KM12 colon): > 1000 µM
- TGI (HOP-62 NSCLC): > 1000 µM

Source: PubChem BioAssay (NCI)
